How the values were obtained:
Test in all cases: KINOMEscan
Format in all cases: binding
[1] = target: T1, FLT1 (Homo sapiens, UniProt P17948); details: 35 at 1 µM; read-out: % inhibition
T1 construct: purchased Eurofins DiscoverX (KINOMEscan)
Procedure: (§1) KinomeScan Assay on 35 was performed as previously described at EuroFins DiscoverX (Fremont, CA, USA).

[2] = target: T2, PRKCD (Homo sapiens, UniProt Q05655); details: 35 at 1 µM; read-out: % inhibition
T2 construct: purchased Eurofins DiscoverX (KINOMEscan)
Procedure: as §1

[3] = target: T3, TYK2(JH2domain-pseudokinase) (Homo sapiens, UniProt P29597); details: 35 at 1 µM; read-out: % inhibition
T3 construct: TYK2(JH2domain-pseudokinase); purchased Eurofins DiscoverX (KINOMEscan)
Procedure: as §1

[4] = target: T4, JNK1 (Homo sapiens, UniProt P45983); details: 35 at 1 µM; read-out: % inhibition
T4 construct: purchased Eurofins DiscoverX (KINOMEscan)
Procedure: as §1

[5] = target: T5, IRAK4 (Homo sapiens, UniProt Q9NWZ3); details: 35 at 1 µM; read-out: % inhibition
T5 construct: purchased Eurofins DiscoverX (KINOMEscan)
Procedure: as §1

[6] = target: T6, ACVR2B (Homo sapiens, UniProt Q13705); details: 35 at 1 µM; read-out: % inhibition
T6 construct: purchased Eurofins DiscoverX (KINOMEscan)
Procedure: as §1

[7] = target: T7, PIK3CA(H1047Y) (Homo sapiens, UniProt P42336, H1047Y); details: 35 at 1 µM; read-out: % inhibition
T7 construct: purchased Eurofins DiscoverX (KINOMEscan)
Procedure: as §1

[8] = target: T8, EPHB1 (Homo sapiens, UniProt P54762); details: 35 at 1 µM; read-out: % inhibition
T8 construct: purchased Eurofins DiscoverX (KINOMEscan)
Procedure: as §1

[9] = target: T9, ERBB3 (Homo sapiens, UniProt P21860); details: 35 at 1 µM; read-out: % inhibition
T9 construct: purchased Eurofins DiscoverX (KINOMEscan)
Procedure: as §1

[10] = target: T10, SRMS (Homo sapiens, UniProt Q9H3Y6); details: 35 at 1 µM; read-out: % inhibition
T10 construct: purchased Eurofins DiscoverX (KINOMEscan)
Procedure: as §1

[11] = target: T11, CDKL2 (Homo sapiens, UniProt Q92772); details: 35 at 1 µM; read-out: % inhibition
T11 construct: purchased Eurofins DiscoverX (KINOMEscan)
Procedure: as §1

[12] = target: T12, VPS34 (Homo sapiens, UniProt Q8NEB9); details: 35 at 1 µM; read-out: % inhibition
T12 construct: purchased Eurofins DiscoverX (KINOMEscan)
Procedure: as §1

[13] = target: T13, GRK1 (Homo sapiens, UniProt Q15835); details: 35 at 1 µM; read-out: % inhibition
T13 construct: purchased Eurofins DiscoverX (KINOMEscan)
Procedure: as §1

[14] = target: T14, TGFBR2 (Homo sapiens, UniProt P37173)
T14 construct: purchased Eurofins DiscoverX (KINOMEscan)
Procedure: as §1

[15] = target: T15, DAPK2 (Homo sapiens, UniProt Q9UIK4); details: 35 at 1 µM; read-out: % inhibition
T15 construct: purchased Eurofins DiscoverX (KINOMEscan)
Procedure: as §1

[16] = target: T16, ZAK (Homo sapiens, UniProt Q9NYL2); details: 35 at 1 µM; read-out: % inhibition
T16 construct: purchased EuroFins DiscoverX (Fremont, CA, USA)
Procedure: as §1

[17] = target: T17, STK33 (Homo sapiens, UniProt Q9BYT3); details: 35 at 1 µM; read-out: % inhibition
T17 construct: purchased Eurofins DiscoverX (KINOMEscan)
Procedure: as §1

[18] = target: T18, HASPIN (Homo sapiens, UniProt Q8TF76); details: 35 at 1 µM; read-out: % inhibition
T18 construct: purchased Eurofins DiscoverX (KINOMEscan)
Procedure: as §1

[19] = target: T19, MAPKAPK2 (Homo sapiens, UniProt P49137); details: 35 at 1 µM; read-out: % inhibition
T19 construct: purchased Eurofins DiscoverX (KINOMEscan)
Procedure: as §1

[20] = target: T20, CDK7 (Homo sapiens, UniProt P50613); details: 35 at 1 µM; read-out: % inhibition
T20 construct: purchased Eurofins DiscoverX (KINOMEscan)
Procedure: as §1

[21] = target: T21, MET(M1250T) (Homo sapiens, UniProt P08581, M1250T); details: 35 at 1 µM; read-out: % inhibition
T21 construct: purchased Eurofins DiscoverX (KINOMEscan)
Procedure: as §1

[22] = target: T22, PIK3CA (Homo sapiens, UniProt P42336); details: 35 at 1 µM; read-out: % inhibition
T22 construct: purchased Eurofins DiscoverX (KINOMEscan)
Procedure: as §1

[23] = target: T23, RPS6KA4(Kin.Dom.2-C-terminal) (Homo sapiens, UniProt O75676); details: 35 at 1 µM; read-out: % inhibition
T23 construct: RPS6KA4(Kin.Dom.2-C-terminal); purchased Eurofins DiscoverX (KINOMEscan)
Procedure: as §1

[24] = target: T24, PDGFRA (Homo sapiens, UniProt P16234); details: 35 at 1 µM; read-out: % inhibition
T24 construct: purchased Eurofins DiscoverX (KINOMEscan)
Procedure: as §1

[25] = target: T25, ABL1(T315I)-phosphorylated (Homo sapiens, UniProt P00519, T315I); details: 35 at 1 µM; read-out: % inhibition
T25 construct: purchased Eurofins DiscoverX (KINOMEscan)
Procedure: as §1

[26] = target: T26, PKAC-beta (Homo sapiens, UniProt P22694); details: 35 at 1 µM; read-out: % inhibition
T26 construct: purchased Eurofins DiscoverX (KINOMEscan)
Procedure: as §1

[27] = target: T27, FGFR3 (Homo sapiens, UniProt P22607); details: 35 at 1 µM; read-out: % inhibition
T27 construct: purchased Eurofins DiscoverX (KINOMEscan)
Procedure: as §1

[28] = target: T28, CLK2 (Homo sapiens, UniProt P49760); details: 35 at 1 µM; read-out: % inhibition
T28 construct: purchased Eurofins DiscoverX (KINOMEscan)
Procedure: as §1

[29] = target: T29, NEK10 (Homo sapiens, UniProt Q6ZWH5); details: 35 at 1 µM; read-out: % inhibition
T29 construct: purchased Eurofins DiscoverX (KINOMEscan)
Procedure: as §1

[30] = target: T30, EPHA6 (Homo sapiens, UniProt Q9UF33); details: 35 at 1 µM; read-out: % inhibition
T30 construct: purchased Eurofins DiscoverX (KINOMEscan)
Procedure: as §1

[31] = target: T31, PRKX (Homo sapiens, UniProt P51817); details: 35 at 1 µM; read-out: % inhibition
T31 construct: purchased Eurofins DiscoverX (KINOMEscan)
Procedure: as §1

[32] = target: T32, YANK2 (Homo sapiens, UniProt Q9NY57); details: 35 at 1 µM; read-out: % inhibition
T32 construct: purchased EuroFins DiscoverX (Fremont, CA, USA)
Procedure: as §1

[33] = target: T33, RPS6KA4(Kin.Dom.1-N-terminal) (Homo sapiens, UniProt O75676); details: 35 at 1 µM; read-out: % inhibition
T33 construct: RPS6KA4(Kin.Dom.1-N-terminal); purchased Eurofins DiscoverX (KINOMEscan)
Procedure: as §1

[34] = target: T34, DMPK (Homo sapiens, UniProt Q09013); details: 35 at 1 µM; read-out: % inhibition
T34 construct: purchased Eurofins DiscoverX (KINOMEscan)
Procedure: as §1

[35] = target: T35, ABL1(T315I)-nonphosphorylated (Homo sapiens, UniProt P00519, T315I); details: 35 at 1 µM; read-out: % inhibition
T35 construct: purchased Eurofins DiscoverX (KINOMEscan)
Procedure: as §1

[36] = target: T36, IKK-beta (Homo sapiens, UniProt O14920); details: 35 at 1 µM; read-out: % inhibition
T36 construct: purchased Eurofins DiscoverX (KINOMEscan)
Procedure: as §1

[37] = target: T37, MAP4K4 (Homo sapiens, UniProt O95819); details: 35 at 1 µM; read-out: % inhibition
T37 construct: purchased Eurofins DiscoverX (KINOMEscan)
Procedure: as §1

[38] = target: T38, NEK4 (Homo sapiens, UniProt P51957); details: 35 at 1 µM; read-out: % inhibition
T38 construct: purchased Eurofins DiscoverX (KINOMEscan)
Procedure: as §1

[39] = target: T39, EPHB2 (Homo sapiens, UniProt P29323); details: 35 at 1 µM; read-out: % inhibition
T39 construct: purchased Eurofins DiscoverX (KINOMEscan)
Procedure: as §1

[40] = target: T40, NEK9 (Homo sapiens, UniProt Q8TD19); details: 35 at 1 µM; read-out: % inhibition
T40 construct: purchased Eurofins DiscoverX (KINOMEscan)
Procedure: as §1

[41] = target: T41, PIM1 (Homo sapiens, UniProt P11309); details: 35 at 1 µM; read-out: % inhibition
T41 construct: purchased Eurofins DiscoverX (KINOMEscan)
Procedure: as §1

T14 sequence (P37173 23-567): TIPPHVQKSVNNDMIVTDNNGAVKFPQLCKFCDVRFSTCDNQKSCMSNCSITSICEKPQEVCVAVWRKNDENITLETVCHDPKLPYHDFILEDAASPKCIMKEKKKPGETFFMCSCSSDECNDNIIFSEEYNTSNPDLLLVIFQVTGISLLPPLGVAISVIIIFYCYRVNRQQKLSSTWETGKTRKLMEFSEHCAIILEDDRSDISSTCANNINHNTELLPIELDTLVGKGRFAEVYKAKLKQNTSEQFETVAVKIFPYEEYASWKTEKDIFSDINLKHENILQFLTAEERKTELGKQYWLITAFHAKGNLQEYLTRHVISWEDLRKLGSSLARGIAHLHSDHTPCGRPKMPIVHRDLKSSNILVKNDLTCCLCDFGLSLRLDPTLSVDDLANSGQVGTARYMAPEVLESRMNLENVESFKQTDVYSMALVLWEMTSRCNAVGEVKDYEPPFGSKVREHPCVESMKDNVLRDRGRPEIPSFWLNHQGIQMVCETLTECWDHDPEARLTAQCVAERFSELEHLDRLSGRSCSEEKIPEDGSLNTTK
T41 sequence (P11309 whole entry): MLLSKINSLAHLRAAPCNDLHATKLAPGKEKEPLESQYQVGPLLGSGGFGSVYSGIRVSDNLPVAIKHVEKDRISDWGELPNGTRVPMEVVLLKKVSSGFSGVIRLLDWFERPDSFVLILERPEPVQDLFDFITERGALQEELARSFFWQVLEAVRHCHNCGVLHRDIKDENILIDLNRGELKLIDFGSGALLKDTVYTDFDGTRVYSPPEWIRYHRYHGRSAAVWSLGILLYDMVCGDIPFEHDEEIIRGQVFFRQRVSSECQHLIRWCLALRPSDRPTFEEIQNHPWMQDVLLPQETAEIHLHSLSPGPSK
T38 sequence (P51957 whole entry): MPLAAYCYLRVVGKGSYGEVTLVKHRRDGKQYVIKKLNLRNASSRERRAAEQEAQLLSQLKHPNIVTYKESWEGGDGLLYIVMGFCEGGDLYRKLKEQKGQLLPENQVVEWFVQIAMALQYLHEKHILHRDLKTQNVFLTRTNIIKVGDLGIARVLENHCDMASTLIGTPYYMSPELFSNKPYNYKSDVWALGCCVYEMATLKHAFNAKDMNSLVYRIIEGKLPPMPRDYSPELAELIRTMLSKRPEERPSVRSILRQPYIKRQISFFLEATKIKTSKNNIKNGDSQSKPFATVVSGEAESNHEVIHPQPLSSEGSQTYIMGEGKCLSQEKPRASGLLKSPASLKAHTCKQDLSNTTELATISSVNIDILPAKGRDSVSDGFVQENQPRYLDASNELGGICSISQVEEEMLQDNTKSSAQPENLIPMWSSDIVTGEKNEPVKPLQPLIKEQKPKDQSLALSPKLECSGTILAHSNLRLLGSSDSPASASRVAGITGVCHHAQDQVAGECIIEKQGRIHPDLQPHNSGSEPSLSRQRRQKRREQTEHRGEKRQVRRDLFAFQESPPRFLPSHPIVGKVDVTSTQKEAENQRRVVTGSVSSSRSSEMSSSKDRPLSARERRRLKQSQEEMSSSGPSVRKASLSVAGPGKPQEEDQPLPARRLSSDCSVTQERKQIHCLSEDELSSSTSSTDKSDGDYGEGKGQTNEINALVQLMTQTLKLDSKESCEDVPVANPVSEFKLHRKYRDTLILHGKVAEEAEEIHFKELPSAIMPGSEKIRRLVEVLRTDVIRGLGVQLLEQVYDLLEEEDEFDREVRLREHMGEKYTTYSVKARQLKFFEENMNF
T15 sequence (Q9UIK4 whole entry): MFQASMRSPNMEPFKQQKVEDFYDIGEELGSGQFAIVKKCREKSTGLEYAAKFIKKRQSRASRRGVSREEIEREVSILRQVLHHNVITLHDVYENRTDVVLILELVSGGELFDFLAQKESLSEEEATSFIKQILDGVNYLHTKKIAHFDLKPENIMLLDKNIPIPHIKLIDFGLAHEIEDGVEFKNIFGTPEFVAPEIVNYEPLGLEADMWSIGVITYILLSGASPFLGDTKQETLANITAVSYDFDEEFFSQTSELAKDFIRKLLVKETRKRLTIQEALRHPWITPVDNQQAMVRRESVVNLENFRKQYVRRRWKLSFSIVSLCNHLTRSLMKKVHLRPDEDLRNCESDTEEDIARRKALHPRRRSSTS
T39 sequence (P29323 19-1055): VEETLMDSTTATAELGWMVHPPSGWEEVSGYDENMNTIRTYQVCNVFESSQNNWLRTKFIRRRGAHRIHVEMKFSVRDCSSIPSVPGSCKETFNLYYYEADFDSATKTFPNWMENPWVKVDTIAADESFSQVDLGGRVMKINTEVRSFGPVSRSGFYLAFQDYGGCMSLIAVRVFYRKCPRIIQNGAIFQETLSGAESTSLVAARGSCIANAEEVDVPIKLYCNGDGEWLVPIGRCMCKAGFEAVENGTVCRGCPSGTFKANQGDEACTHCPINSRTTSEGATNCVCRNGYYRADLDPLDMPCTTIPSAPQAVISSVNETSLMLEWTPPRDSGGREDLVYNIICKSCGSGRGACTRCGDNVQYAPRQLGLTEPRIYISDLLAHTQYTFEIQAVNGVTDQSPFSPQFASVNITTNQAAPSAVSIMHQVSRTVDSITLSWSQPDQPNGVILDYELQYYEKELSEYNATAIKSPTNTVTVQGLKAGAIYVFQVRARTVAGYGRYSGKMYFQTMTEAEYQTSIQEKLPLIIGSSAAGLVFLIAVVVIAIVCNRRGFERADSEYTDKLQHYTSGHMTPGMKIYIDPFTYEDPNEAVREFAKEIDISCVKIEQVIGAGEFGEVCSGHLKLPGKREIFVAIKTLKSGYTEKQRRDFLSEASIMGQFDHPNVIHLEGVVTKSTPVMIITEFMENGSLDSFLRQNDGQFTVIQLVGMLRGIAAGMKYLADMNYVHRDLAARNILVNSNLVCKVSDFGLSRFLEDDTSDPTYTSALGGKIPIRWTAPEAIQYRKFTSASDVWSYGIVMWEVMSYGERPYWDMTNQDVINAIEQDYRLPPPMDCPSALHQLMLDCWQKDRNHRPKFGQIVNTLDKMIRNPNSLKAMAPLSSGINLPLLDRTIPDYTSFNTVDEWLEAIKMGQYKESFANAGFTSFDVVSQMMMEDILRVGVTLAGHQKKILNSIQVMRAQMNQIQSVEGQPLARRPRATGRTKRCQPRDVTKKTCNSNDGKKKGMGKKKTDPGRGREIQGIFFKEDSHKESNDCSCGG
T34 sequence (Q09013 whole entry): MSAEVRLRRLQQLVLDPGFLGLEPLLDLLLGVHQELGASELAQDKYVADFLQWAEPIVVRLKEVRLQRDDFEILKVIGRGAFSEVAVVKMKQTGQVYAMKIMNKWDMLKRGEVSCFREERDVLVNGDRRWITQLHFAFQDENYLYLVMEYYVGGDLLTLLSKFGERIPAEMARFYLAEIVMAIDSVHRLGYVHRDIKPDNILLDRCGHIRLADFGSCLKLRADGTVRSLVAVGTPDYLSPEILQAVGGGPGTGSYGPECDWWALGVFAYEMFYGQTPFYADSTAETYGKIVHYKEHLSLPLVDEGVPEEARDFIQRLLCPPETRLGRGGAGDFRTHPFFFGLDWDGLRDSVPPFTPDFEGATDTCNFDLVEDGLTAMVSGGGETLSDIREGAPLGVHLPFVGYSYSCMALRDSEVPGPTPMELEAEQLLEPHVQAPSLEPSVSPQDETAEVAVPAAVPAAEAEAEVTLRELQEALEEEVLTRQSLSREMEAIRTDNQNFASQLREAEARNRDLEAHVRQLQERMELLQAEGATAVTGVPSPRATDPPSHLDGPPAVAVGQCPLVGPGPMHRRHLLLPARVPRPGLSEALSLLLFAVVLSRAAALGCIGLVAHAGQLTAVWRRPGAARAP
T37 sequence (O95819 whole entry): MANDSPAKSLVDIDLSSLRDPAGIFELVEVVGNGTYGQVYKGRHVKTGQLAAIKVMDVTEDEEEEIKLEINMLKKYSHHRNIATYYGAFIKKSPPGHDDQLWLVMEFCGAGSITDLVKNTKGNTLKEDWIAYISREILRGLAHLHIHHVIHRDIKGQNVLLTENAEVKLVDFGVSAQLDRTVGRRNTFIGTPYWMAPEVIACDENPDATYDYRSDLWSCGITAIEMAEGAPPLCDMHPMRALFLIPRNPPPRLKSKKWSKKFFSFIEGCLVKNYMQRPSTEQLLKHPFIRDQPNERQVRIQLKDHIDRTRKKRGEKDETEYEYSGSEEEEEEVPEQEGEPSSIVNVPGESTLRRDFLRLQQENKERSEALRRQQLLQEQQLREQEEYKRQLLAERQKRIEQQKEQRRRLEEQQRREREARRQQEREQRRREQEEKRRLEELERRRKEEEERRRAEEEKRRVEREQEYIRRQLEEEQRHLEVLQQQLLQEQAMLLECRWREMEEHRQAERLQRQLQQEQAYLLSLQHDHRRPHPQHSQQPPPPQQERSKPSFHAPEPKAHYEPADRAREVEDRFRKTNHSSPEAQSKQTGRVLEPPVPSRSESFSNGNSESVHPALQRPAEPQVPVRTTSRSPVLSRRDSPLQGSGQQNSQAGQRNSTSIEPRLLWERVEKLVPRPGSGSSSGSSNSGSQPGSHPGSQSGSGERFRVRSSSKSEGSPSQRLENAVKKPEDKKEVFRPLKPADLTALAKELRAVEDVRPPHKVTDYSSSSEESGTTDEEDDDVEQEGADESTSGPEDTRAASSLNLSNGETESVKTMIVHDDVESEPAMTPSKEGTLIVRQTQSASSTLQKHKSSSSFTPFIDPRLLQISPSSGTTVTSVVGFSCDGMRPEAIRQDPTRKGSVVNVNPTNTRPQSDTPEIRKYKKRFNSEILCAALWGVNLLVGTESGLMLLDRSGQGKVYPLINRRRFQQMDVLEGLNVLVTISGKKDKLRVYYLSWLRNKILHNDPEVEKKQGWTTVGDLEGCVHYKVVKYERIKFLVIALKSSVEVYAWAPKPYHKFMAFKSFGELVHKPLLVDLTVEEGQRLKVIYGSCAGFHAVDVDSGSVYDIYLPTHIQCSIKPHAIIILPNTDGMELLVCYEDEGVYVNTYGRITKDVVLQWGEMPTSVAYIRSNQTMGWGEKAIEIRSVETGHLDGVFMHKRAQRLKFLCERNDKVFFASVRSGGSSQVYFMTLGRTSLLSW

SMILES: Brc1ccc2nccc(Nc3ccc4cn[nH]c4c3)c2c1 [Compound 35, 6-Bromo-N-(1H-indazol-6-yl)quinolin-4-amine]
- activity at 1 µM [1]: 100%
- activity at 1 µM [2]: 100%
- activity at 1 µM [3]: 100%
- activity at 1 µM [4]: 83%
- activity at 1 µM [5]: 100%
- activity at 1 µM [6]: 36%
- activity at 1 µM [7]: 100%
- activity at 1 µM [8]: 100%
- activity at 1 µM [9]: 100%
- activity at 1 µM [10]: 87%
- activity at 1 µM [11]: 100%
- activity at 1 µM [12]: 100%
- activity at 1 µM [13]: 68%
- activity at 1 µM ([14]; 35 at 1 µM, read-out: % inhibition): 18%
- inhibition at 1 µM ([14]; KinomeScan, screened at 1 μM, read-out: kinases inhibited at 1 μM: TGFBR2): 82%
- activity at 1 µM [15]: 100%
- activity at 1 µM [16]: 100%
- activity at 1 µM [17]: 100%
- activity at 1 µM [18]: 79%
- activity at 1 µM [19]: 100%
- activity at 1 µM [20]: 100%
- activity at 1 µM [21]: 100%
- activity at 1 µM [22]: 100%
- activity at 1 µM [23]: 100%
- activity at 1 µM [24]: 100%
- activity at 1 µM [25]: 95%
- activity at 1 µM [26]: 100%
- activity at 1 µM [27]: 100%
- activity at 1 µM [28]: 86%
- activity at 1 µM [29]: 100%
- activity at 1 µM [30]: 100%
- activity at 1 µM [31]: 100%
- activity at 1 µM [32]: 100%
- activity at 1 µM [33]: 100%
- activity at 1 µM [34]: 100%
- activity at 1 µM [35]: 100%
- activity at 1 µM [36]: 100%
- activity at 1 µM [37]: 100%
- activity at 1 µM [38]: 100%
- activity at 1 µM [39]: 100%
- activity at 1 µM [40]: 100%
- activity at 1 µM [41]: 100%

From PMC6891286, “Towards the Development of an In vivo Chemical Probe for Cyclin G Associated Kinase (GAK)” (Molecules, 2019)
